Results published in PubChem BioAssay (NCI).
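GI50 is the concentration that inhibits growth by half. TGI marks complete inhibition of growth.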

How the values were obtained:
Assay in all cases: growth of human tumour cells (NCI), 384-well format
[1] = system: 786-0 renal
[2] = system: A498 renal
[3] = system: A549 NSCLC
[4] = system: ACHN renal
[5] = system: BT-549 breast
[6] = system: CAKI-1 renal
[7] = system: CCRF-CEM leukemia
[8] = system: COLO 205 colon
[9] = system: DU-145 prostate
[10] = system: HCC-2998 colon
[11] = system: HCT-116 colon
[12] = system: HCT-15 colon
[13] = system: HL-60(TB) leukemia
[14] = system: HOP-62 NSCLC
[15] = system: HOP-92 NSCLC
[16] = system: HT29 colon
[17] = system: IGROV1 ovarian
[18] = system: K-562 leukemia
[19] = system: KM12 colon
[20] = system: LOX IMVI melanoma
[21] = system: M14 melanoma
[22] = system: MALME-3M melanoma
[23] = system: MCF7 breast
[24] = system: MDA-MB-231 breast
[25] = system: MDA-MB-435 melanoma
[26] = system: MDA-MB-468 breast
[27] = system: MOLT-4 leukemia
[28] = system: NCI-H226 lung
[29] = system: NCI-H23 lung
[30] = system: NCI-H322M lung
[31] = system: NCI-H460 NSCLC
[32] = system: NCI-H522 lung
[33] = system: NCI/ADR-RES ovarian
[34] = system: OVCAR-3 ovarian
[35] = system: OVCAR-4 ovarian
[36] = system: OVCAR-5 ovarian
[37] = system: OVCAR-8 ovarian
[38] = system: PC-3 prostate
[39] = system: RPMI-8226 leukemia
[40] = system: RXF 393 renal
[41] = system: SF-295 CNS
[42] = system: SF-539 CNS
[43] = system: SK-MEL-2 melanoma
[44] = system: SK-MEL-28 melanoma
[45] = system: SK-MEL-5 melanoma
[46] = system: SK-OV-3 ovarian
[47] = system: SN12C renal
[48] = system: SNB-19 CNS
[49] = system: SR leukemia
[50] = system: SW-620 colon
[51] = system: T-47D breast
[52] = system: TK-10 renal
[53] = system: U251 glioblastoma
[54] = system: UACC-257 melanoma
[55] = system: UACC-62 melanoma
[56] = system: UO-31 renal
[57] = system: EKVX NSCLC
[58] = system: HS 578T breast
[59] = system: SF-268 CNS
[60] = system: SNB-75 CNS

## C=CCN1CC(=O)N2[C@@H](Cc3ccc(O)cc3F)C(=O)N(Cc3cccc(N4CC(N5CCN(CC)CC5)C4)n3)C[C@@H]2N1C(=O)NCc1ccccc1
[1]
  GI50: 35.9 nM
  TGI: 680 nM
[2]
  GI50: 35.4 nM
  TGI: 232 nM
[3]
  GI50: 31.5 nM
  TGI: 3130 nM
[4]
  GI50: 231 nM
  TGI: 1990 nM
[5]
  GI50: 27.6 nM
  TGI: 98.4 nM
[6]
  GI50: 30 nM
  TGI: 105 nM
[7]
  GI50: 29.8 nM
  TGI: 231 nM
[8]
  GI50: 19.8 nM
  TGI: 80.3 nM
[9]
  GI50: 59.4 nM
  TGI: 23000 nM
[10]
  GI50: 41.3 nM
  TGI: 398 nM
[11]
  GI50: 23.9 nM
  TGI: 296 nM
[12]
  GI50: 315 nM
  TGI: 3760 nM
[13]
  GI50: 57.8 nM
  TGI: 293 nM
[14]
  GI50: 32.3 nM
  TGI: 190 nM
[15]
  GI50: 13.9 nM
  TGI: 46.4 nM
[16]
  GI50: 52.1 nM
  TGI: 12900 nM
[17]
  GI50: 23.1 nM
  TGI: 59.9 nM
[18]
  GI50: 35.9 nM
  TGI: 18100 nM
[19]
  GI50: 36.8 nM
  TGI: 32300 nM
[20]
  GI50: 33.7 nM
  TGI: 98.7 nM
[21]
  GI50: 32.1 nM
  TGI: 196 nM
[22]
  GI50: 23 nM
  TGI: 63.1 nM
[23]
  GI50: 472 nM
  TGI: 46400 nM
[24]
  GI50: 10.8 nM
  TGI: 34.9 nM
[25]
  GI50: 60.8 nM
  TGI: 32400 nM
[26]
  GI50: 28.5 nM
  TGI: 87.3 nM
[27]
  GI50: 10.4 nM
  TGI: 22.6 nM
[28]
  GI50: 28.4 nM
  TGI: 372 nM
[29]
  GI50: 24 nM
  TGI: 91.2 nM
[30]
  GI50: 54.6 nM
  TGI: 2210 nM
[31]
  GI50: 21.7 nM
  TGI: 90.4 nM
[32]
  GI50: 16.2 nM
  TGI: 82.7 nM
[33]
  GI50: 3130 nM
  TGI: 23600 nM
[34]
  GI50: 24.4 nM
  TGI: 84.6 nM
[35]
  GI50: 23.2 nM
  TGI: 74.1 nM
[36]
  GI50: 20.4 nM
  TGI: 66.1 nM
[37]
  GI50: 23.8 nM
  TGI: 282 nM
[38]
  GI50: 27.8 nM
  TGI: 91.1 nM
[39]
  GI50: 17.8 nM
  TGI: 33.9 nM
[40]
  GI50: 62.5 nM
  TGI: 593 nM
[41]
  GI50: 79.8 nM
  TGI: 528 nM
[42]
  GI50: 21.5 nM
  TGI: 71.9 nM
[43]
  GI50: 20.6 nM
  TGI: 83.1 nM
[44]
  GI50: 25.9 nM
  TGI: 77 nM
[45]
  GI50: 24.3 nM
  TGI: 70.6 nM
[46]
  GI50: 25.5 nM
  TGI: 68.7 nM
[47]
  GI50: 47.4 nM
  TGI: 18600 nM
[48]
  GI50: 25 nM
  TGI: 226 nM
[49]
  GI50: 26.2 nM
  TGI: 58.4 nM
[50]
  GI50: 84.7 nM
  TGI: > 100000 nM
[51]
  GI50: 27.2 nM
  TGI: 193 nM
[52]
  GI50: 52.6 nM
  TGI: 637 nM
[53]
  GI50: 23.6 nM
  TGI: 88.8 nM
[54]
  GI50: 50.2 nM
  TGI: 333 nM
[55]
  GI50: 21.4 nM
  TGI: 67.5 nM
[56]
  GI50: 408 nM
  TGI: 3690 nM

## COc1cc2nc(-c3cc(F)ccc3O)nc(N[C@@H]3CNC[C@H]3C(C)(C)O)c2cc1OC
[1]
  GI50: 1530 nM
  TGI: 2870 nM
[2]
  GI50: 1650 nM
  TGI: 3020 nM
[3]
  GI50: 1510 nM
  TGI: 2910 nM
[4]
  GI50: 1750 nM
  TGI: 3180 nM
[5]
  GI50: 1310 nM
  TGI: 2590 nM
[6]
  GI50: 1350 nM
  TGI: 2660 nM
[7]
  GI50: 1410 nM
  TGI: 2730 nM
[8]
  GI50: 1240 nM
  TGI: 2520 nM
[9]
  GI50: 1570 nM
  TGI: 2990 nM
[57]
  GI50: 1460 nM
  TGI: 2790 nM
[10]
  GI50: 970 nM
  TGI: 2170 nM
[11]
  GI50: 1110 nM
  TGI: 2370 nM
[12]
  GI50: 1910 nM
  TGI: 3370 nM
[13]
  GI50: 1820 nM
  TGI: 3240 nM
[14]
  GI50: 1220 nM
  TGI: 2490 nM
[15]
  GI50: 1150 nM
  TGI: 2380 nM
[58]
  GI50: 1740 nM
  TGI: 3130 nM
[16]
  GI50: 1650 nM
  TGI: 3060 nM
[17]
  GI50: 507 nM
  TGI: 1640 nM
[18]
  GI50: 1270 nM
  TGI: 2550 nM
[19]
  GI50: 1340 nM
  TGI: 2640 nM
[20]
  GI50: 1390 nM
  TGI: 2710 nM
[21]
  GI50: 1830 nM
  TGI: 3250 nM
[22]
  GI50: 1600 nM
  TGI: 2960 nM
[23]
  GI50: 1570 nM
  TGI: 2950 nM
[24]
  GI50: 1400 nM
  TGI: 2700 nM
[25]
  GI50: 1950 nM
  TGI: 3390 nM
[26]
  GI50: 1770 nM
  TGI: 3170 nM
[27]
  GI50: 1530 nM
  TGI: 2870 nM
[28]
  GI50: 1400 nM
  TGI: 2760 nM
[29]
  GI50: 1440 nM
  TGI: 2770 nM
[30]
  GI50: 1630 nM
  TGI: 3020 nM
[31]
  GI50: 1470 nM
  TGI: 2890 nM
[32]
  GI50: 1040 nM
  TGI: 2220 nM
[33]
  GI50: 2240 nM
  TGI: 4990 nM
[34]
  GI50: 1820 nM
  TGI: 3230 nM
[35]
  GI50: 2390 nM
  TGI: 3880 nM
[36]
  GI50: 1670 nM
  TGI: 3110 nM
[37]
  GI50: 1690 nM
  TGI: 3090 nM
[38]
  GI50: 1560 nM
  TGI: 2920 nM
[39]
  GI50: 1830 nM
  TGI: 3250 nM
[40]
  GI50: 1560 nM
  TGI: 2910 nM
[59]
  GI50: 434 nM
  TGI: 1620 nM
[41]
  GI50: 1880 nM
  TGI: 3300 nM
[42]
  GI50: 1260 nM
  TGI: 2540 nM
[44]
  GI50: 2010 nM
  TGI: 3440 nM
[45]
  GI50: 1500 nM
  TGI: 2850 nM
[46]
  GI50: 1820 nM
  TGI: 3240 nM
[47]
  GI50: 1480 nM
  TGI: 2810 nM
[48]
  GI50: 1790 nM
  TGI: 3210 nM
[60]
  GI50: 1250 nM
  TGI: 2510 nM
[50]
  GI50: 1820 nM
  TGI: 3240 nM
[51]
  GI50: 2460 nM
  TGI: 3940 nM
[52]
  GI50: 1630 nM
  TGI: 3050 nM
[53]
  GI50: 1860 nM
  TGI: 3280 nM
[54]
  GI50: 1710 nM
  TGI: 3100 nM
[55]
  GI50: 1620 nM
  TGI: 2990 nM
[56]
  GI50: 1810 nM
  TGI: 3220 nM
